{"source": "patent US20220249463A1", "about": "“METHODS OF ALTERING CARDIAC REMODELING USING COMPOUNDS THAT PROMOTE GLUCOSE OXIDATION” (IMBRIA PHARMACEUTICALS, INC., priority 2019, published 2022)", "key": {"TAC mice [1]": {"system": "TAC mice", "assay": "TAC mice: left ventricular pressure with Mikro-tip catheter", "type": "in vivo", "conditions": "end of 6-week treatment"}, "TAC mice [2]": {"system": "TAC mice", "assay": "TAC mice: echocardiography", "type": "in vivo"}, "TAC mice [3]": {"system": "TAC mice", "assay": "TAC mice, six weeks treatment: heart weight and heart weight/body weight", "type": "in vivo", "conditions": "6 weeks"}, "[4]": {"assay": "Stability of CV-8972 forms in solvents, X-ray powder diffraction", "type": "physicochemical", "description": "Samples from batch 289-MBA-15-A (containing form B) were added to various solvents, incubated under various conditions, and analyzed by X-ray powder diffraction.\nSamples from batch 289-MBA-16 (containing forms A and B) were added to various solvents, incubated under various conditions, and analyzed by X-ray powder diffraction.\nSamples from batch S-18-0030513 (containing form A) were added to various solvents, incubated under various conditions, and analyzed by X-ray powder diffraction."}, "[5]": {"conditions": "TMZ 6, NA 2.4, CV-8814 7.5, CV-8972 10 mg/kg/day"}}}
{"compound": "COc1ccc(CN2CCN(CCOC(=O)c3cccnc3)CC2)c(OC)c1OC", "note": "[CV-8972, 2-(4-(2,3,4-trimethoxybenzyl)piperazin-1-yl)ethyl nicotinate]", "values": [{"measurement": "+dp/dtm", "setting": "TAC mice [1]", "value": "4541±395", "unit": "mm Hg/sec"}, {"measurement": "-dp/dtm", "setting": "TAC mice [1]", "value": "−4126±339", "unit": "mm Hg/sec"}, {"measurement": "left ventricular developed pressure (LVDP)", "setting": "TAC mice [1]; [5]", "value": "116±9", "unit": "mm Hg"}, {"measurement": "EF (in words)", "setting": "TAC mice [2]; 3-weeks after TAC", "value": "significantly increased"}, {"measurement": "IVRT", "setting": "TAC mice [2]; 3-weeks after TAC", "value": "32 ± 1", "unit": "ms"}, {"measurement": "IVSd", "setting": "TAC mice [2]; 3-weeks after TAC", "value": "1.29±0.04", "unit": "mm"}, {"measurement": "LV mass", "setting": "TAC mice [2]; 3-weeks after TAC", "value": "154 ± 8", "unit": "mg"}, {"measurement": "left ventricular FS", "setting": "TAC mice [2]; 3-weeks after TAC, CV-8814 7.5, CV-8972 10 mg/kg/day", "value": "47%±3%"}, {"measurement": "IVRT", "setting": "TAC mice [2]; 6-weeks after TAC", "value": "31 ± 2", "unit": "ms"}, {"measurement": "IVSd", "setting": "TAC mice [2]; 6-weeks after TAC", "value": "1.26±0.04", "unit": "mm"}, {"measurement": "LV mass", "setting": "TAC mice [2]; 6-weeks after TAC", "value": "156 ± 10", "unit": "mg"}, {"measurement": "left ventricular FS", "setting": "TAC mice [2]; 6-weeks after TAC (end of the experiment)", "value": "46%±3%"}, {"measurement": "cardiac functions in TAC mice (in words)", "setting": "TAC mice [2]; conclusion, 6 weeks treatment", "value": "improved cardiac functions"}, {"measurement": "EF (in words)", "setting": "TAC mice [2]; to the end of the study (6 weeks)", "value": "protective effect was sustained to the end of the study"}, {"measurement": "cardiac remodeling in TAC mice (in words)", "setting": "TAC mice [3]; [5]", "value": "effectively inhibited cardiac remodeling"}, {"measurement": "cardiac mass", "setting": "TAC mice [3]; TAC mice, TMZ 6, CV-8814 7.5, CV-8972 10 mg/kg/day, osmotic minipump", "value": "225 ± 11", "unit": "mg"}, {"measurement": "heart weight to body weight ratio", "setting": "TAC mice [3]; TAC mice, TMZ 6, NA 2.4, CV-8814 7.5, CV-8972 10 mg/kg/day, subcutaneous osmotic minipump", "value": "7.4 ± 0.3", "unit": "mg/g"}, {"measurement": "XRPD results", "setting": "[4]; batch 289-MBA-15-A (containing form B), ACN/H2O (90:10) Aw = 0.83, Slurry, RT, 5 d", "value": "Form A"}, {"measurement": "XRPD results", "setting": "[4]; batch 289-MBA-15-A (containing form B), Acetone/H2O (90:10) Aw = 0.72, Slurry, RT, 5 d", "value": "Form A"}, {"measurement": "XRPD results", "setting": "[4]; batch 289-MBA-15-A (containing form B), EtOAc/H2O (97:3) Aw = 0.94, Slurry, RT, 5 d", "value": "Form A"}, {"measurement": "XRPD results", "setting": "[4]; batch 289-MBA-15-A (containing form B), EtOAc, Slurry, RT, 5 d", "value": "Form A + Form B"}, {"measurement": "XRPD results", "setting": "[4]; batch 289-MBA-15-A (containing form B), EtOH/H2O (90:10) Aw = 0.52, Slurry, RT, 5 d", "value": "Form A"}, {"measurement": "XRPD results", "setting": "[4]; batch 289-MBA-15-A (containing form B), EtOH, CC from 60° C.", "value": "Form C + minor Form A"}, {"measurement": "XRPD results", "setting": "[4]; batch 289-MBA-15-A (containing form B), EtOH, Slurry, RT, 3 d", "value": "Form A + Form B"}, {"measurement": "XRPD results", "setting": "[4]; batch 289-MBA-15-A (containing form B), IPA/H2O (90:10) Aw = 0.67, Slurry, RT, 5 d", "value": "Form A"}, {"measurement": "XRPD results", "setting": "[4]; batch 289-MBA-15-A (containing form B), IPA/H2O (98:2) Aw = 0.26, Slurry, RT, 5 d", "value": "Form A"}, {"measurement": "XRPD results", "setting": "[4]; batch 289-MBA-15-A (containing form B), MEK, Slurry, RT, 5 d", "value": "Form A"}, {"measurement": "XRPD results", "setting": "[4]; batch 289-MBA-15-A (containing form B), MeOH/H2O (80:20) Aw = 0.48, Slurry, RT, 5 d", "value": "Form A"}, {"measurement": "XRPD results", "setting": "[4]; batch 289-MBA-15-A (containing form B), MeOH/H2O (95:5) Aw = 0.16, Slurry, RT, 5 d", "value": "Form A"}, {"measurement": "XRPD results", "setting": "[4]; batch 289-MBA-15-A (containing form B), MeOH, Slurry, RT, 5 d", "value": "Form A + Form B"}, {"measurement": "XRPD results", "setting": "[4]; batch 289-MBA-15-A (containing form B), no solvent, 100° C., 20 minutes, result wraps over r24-r26: Form B, shifted with minor Form A", "value": "Form B,"}, {"measurement": "XRPD results", "setting": "[4]; batch 289-MBA-16 (containing forms A and B), EtOAc, Attempted to dissolve at ~60° C., solids remained, cooled slowly to RT, let stir at RT from 60° C. (Table 60)", "value": "Form A + Form B"}, {"measurement": "XRPD results", "setting": "[4]; batch 289-MBA-16 (containing forms A and B), EtOAc, SC from 60° C. (Table 63)", "value": "Form A + Form B"}, {"measurement": "XRPD results", "setting": "[4]; batch 289-MBA-16 (containing forms A and B), EtOH, SC from 60° C.", "value": "Form A + Form C"}, {"measurement": "XRPD results", "setting": "[4]; batch 289-MBA-16 (containing forms A and B), EtOH, Slurry, RT, 3 d (Table 60)", "value": "Form A + Form B"}, {"measurement": "XRPD results", "setting": "[4]; batch 289-MBA-16 (containing forms A and B), EtOH, Slurry, RT, 3 d (Table 63)", "value": "Form A + Form B"}, {"measurement": "XRPD results", "setting": "[4]; batch 289-MBA-16 (containing forms A and B), MeOH/H2O (95:5), Slurry, overnight, 1 g scale", "value": "Form A"}, {"measurement": "XRPD results", "setting": "[4]; batch 289-MBA-16 (containing forms A and B), MeOH, VD w/ MTBE (Table 63)", "value": "Form A"}, {"measurement": "XRPD results", "setting": "[4]; batch 289-MBA-16 (containing forms A and B), MeOH, Vapor diffusion w/ MTBE (Table 60)", "value": "Form A"}, {"measurement": "XRPD results", "setting": "[4]; batch 289-MBA-16 (containing forms A and B), THF, SC from 60° C.", "value": "Form B"}, {"measurement": "XRPD results", "setting": "[4]; batch S-18-0030513 (containing form A), CHCl3, Slurry, RT", "value": "Form A"}, {"measurement": "XRPD results", "setting": "[4]; batch S-18-0030513 (containing form A), EtOAc, Slurry, RT", "value": "Form A"}, {"measurement": "XRPD results", "setting": "[4]; batch S-18-0030513 (containing form A), EtOH, Crash cool from 70° C.", "value": "Form A + Form C"}, {"measurement": "XRPD results", "setting": "[4]; batch S-18-0030513 (containing form A), MEK/H2O 99:1, Slow cool from 70° C.", "value": "Form A"}, {"measurement": "XRPD results", "setting": "[4]; batch S-18-0030513 (containing form A), THF, Slurry, RT", "value": "Form A"}, {"measurement": "XRPD results", "setting": "[4]; batch S-18-0030513 (containing form A), no solvent, 80° C., 20 minutes", "value": "Form A with slight peak shifting"}, {"measurement": "XRPD results", "setting": "[4]; batch S-18-0030513 (containing form A), no solvent, 97% RH Stress of Form A dried at 80° C. for 20 min", "value": "Form A"}, {"measurement": "XRPD results", "setting": "[4]; batch S-18-0030513 (containing form A), no solvent, 100° C., 20 minutes", "value": "Form B + Form A, shifted"}, {"measurement": "XRPD results", "setting": "[4]; batch S-18-0030513 (containing form A), no solvent, VO, RT", "value": "Form A"}]}
